Like-named read-outs stand apart in the source and are kept apart here.
Experiments:
[1] = system: IFNγ-induced NO production in Raw 264.7 cells; test: Nitric oxide assay: suppression of IFNγ-induced NO production (Griess nitrite, adjusted to live cell numbers); format: cell-based; conditions: Mus musculus, RAW264.7, 2 h pretreatment, IFNγ 10 ng/ml for 24 hours
Procedure: Raw 264.7 cells were seeded in 96-well plates at a density of 30, 000 cells per well in DMEM+10% FBS and incubated overnight. The next day, cell media was replaced by DMEM+2% FBS. Cells were pretreated with DMSO or test compounds (top dose 100 nM, 1:4 serial dilution, 10-point) for 2 hours and then treated with recombinant mouse IFNγ (R&D, Cat# 485-MI-100) at a final concentration of 10 ng/ml for 24 hours. Nitrite levels were measured in culture media as a surrogate for nitric oxide using the Griess Reagent System (Promega, Cat# G2930). Cell viability was determined using CellTiter Glo reagents (Promega, Cat#G7572). The nitrite levels were adjusted to live cell numbers and inhibition percentage was calculated. The inhibition percentage was then plotted against compound concentration, and IC50 values were calculated using four-parameter algorithm in Graphpad Prism.

CYP1A2 = target: T1, CYP1A2 (Homo sapiens, UniProt P05177); test: CYP450 enzyme inhibition in liver microsomes (cocktail probe incubation); format: in vitro ADME; conditions: species not given, 0.05-50 μM tested
T1 construct: studied in liver microsomes of CD-1 mouse, Sprague Dawley rat, Beagle dog, cynomolgus monkey, and human; from tissue; host or cells: liver microsomes
T1 sequence (P05177 1-516): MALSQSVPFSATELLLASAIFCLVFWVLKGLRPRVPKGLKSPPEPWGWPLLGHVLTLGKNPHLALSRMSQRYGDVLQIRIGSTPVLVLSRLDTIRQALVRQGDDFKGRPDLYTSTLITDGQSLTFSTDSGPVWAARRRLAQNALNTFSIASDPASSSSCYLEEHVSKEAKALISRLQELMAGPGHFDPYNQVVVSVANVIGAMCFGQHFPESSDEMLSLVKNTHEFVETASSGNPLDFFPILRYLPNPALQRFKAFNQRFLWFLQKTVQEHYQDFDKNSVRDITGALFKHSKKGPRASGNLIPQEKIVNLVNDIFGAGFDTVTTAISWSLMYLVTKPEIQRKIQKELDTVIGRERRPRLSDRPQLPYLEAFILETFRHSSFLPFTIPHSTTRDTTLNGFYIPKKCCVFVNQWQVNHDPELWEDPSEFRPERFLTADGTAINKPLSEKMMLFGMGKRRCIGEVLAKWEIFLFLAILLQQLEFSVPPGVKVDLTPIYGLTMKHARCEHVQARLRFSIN
Procedure: (§1) The inhibition potential of test compounds towards major drug metabolizing CYP450 enzymes was studied in liver microsomes of CD-1 mouse, Sprague Dawley rat, Beagle dog, cynomolgus monkey, and human. The inhibition of CYP1A2, CYP2C9, CYP2C19, CYP2D6, and CYP3A4 was assessed using CYP450 specific probe reactions in a cocktail incubation. Seven concentrations of test compounds (0.05, 0.15, 0.5, 1.5, 5, 15, and 50 μM) were evaluated. In addition, known inhibitors for each probe reaction were included as positive controls and incubated at a single concentration above their respective IC50.

CYP2C19 = target: T2, CYP2C19 (Homo sapiens, UniProt P33261); test: as above; format: in vitro ADME; conditions: species not given, 0.05-50 μM tested
T2 construct: studied in liver microsomes of CD-1 mouse, Sprague Dawley rat, Beagle dog, cynomolgus monkey, and human; from tissue; host or cells: liver microsomes
Procedure: as §1

CYP2C9 = target: T3, CYP2C9 (Homo sapiens, UniProt P11712); test: as above; format: in vitro ADME; conditions: species not given, 0.05-50 μM tested
T3 construct: studied in liver microsomes of CD-1 mouse, Sprague Dawley rat, Beagle dog, cynomolgus monkey, and human; from tissue; host or cells: liver microsomes
Procedure: as §1

CYP2D6 = target: T4, CYP2D6 (Homo sapiens, UniProt P10635); test: as above; format: in vitro ADME; conditions: species not given, 0.05-50 μM tested
T4 construct: studied in liver microsomes of CD-1 mouse, Sprague Dawley rat, Beagle dog, cynomolgus monkey, and human; from tissue; host or cells: liver microsomes
Procedure: as §1

CYP3A4 = target: T5, CYP3A4 (Homo sapiens, UniProt P08684); test: as above; format: in vitro ADME; conditions: species not given, 0.05-50 μM tested
T5 construct: studied in liver microsomes of CD-1 mouse, Sprague Dawley rat, Beagle dog, cynomolgus monkey, and human; from tissue; host or cells: liver microsomes
Procedure: as §1

[2] = Metabolic stability in human liver microsomes; format: in vitro ADME
Procedure: (§2) The metabolic stability of test compounds was examined in CD-1 mouse, Sprague Dawley rat, Beagle dog, cynomolgus monkey, and human liver microsomes. Test compound (final concentration 1 μM) was mixed with diluted liver microsomes from each of the 5 species and a small aliquot was taken at 0, 5, 10, 20, 30, and 60 minutes for LC/MS/MS analysis. Intrinsic clearance and half-life were calculated.

[3] = Metabolic stability in rat liver microsomes; format: in vitro ADME; conditions: Sprague Dawley
Procedure: as §2

[4] = Metabolic stability in mouse liver microsomes; format: in vitro ADME, CD-1 mouse; conditions: CD-1
Procedure: as §2

[5] = Metabolic stability in dog liver microsomes; format: in vitro ADME; conditions: Beagle
Procedure: as §2

[6] = Metabolic stability in monkey liver microsomes; format: in vitro ADME, cynomolgus monkey
Procedure: as §2

[7] = Pharmacokinetic studies in Sprague Dawley rats (oral gavage and IV); format: in vivo; conditions: rat, male SD rats, plasma; for AUC(0-t): read-out: AUC0-24 h; for bioavailability: oral 5 mg/kg vs IV 1 mg/kg, read-out: Bioavailibility F %
Procedure: The pharmacokinetics of test compounds was evaluated in male SD rats when administered via oral gavage and IV injection. For oral dosing, compound was formulated in 0.5% methylcellulose and administered at doses of 5 mg/kg (3 rats per dose level) and volume of 10 mL/kg. For IV dosing, compound was formulated in 5% DMSO/5% Solutol/90% saline and administered to 3 rats at a dose of 1 mg/kg and a volume of 5 mL/kg. The rats were fasted overnight before administration. Plasma samples were collected predose and at 0.5, 1, 3, 6, 9, 12, and 24 hours postdose. The samples were analyzed by LC/MS/MS and the concentration of test compound at each timepoint was determined by linear regression. Pharmacokinetic parameters were calculated from the plasma concentrations using Pheonix WinNonlin.

T2 sequence (P33261 whole entry): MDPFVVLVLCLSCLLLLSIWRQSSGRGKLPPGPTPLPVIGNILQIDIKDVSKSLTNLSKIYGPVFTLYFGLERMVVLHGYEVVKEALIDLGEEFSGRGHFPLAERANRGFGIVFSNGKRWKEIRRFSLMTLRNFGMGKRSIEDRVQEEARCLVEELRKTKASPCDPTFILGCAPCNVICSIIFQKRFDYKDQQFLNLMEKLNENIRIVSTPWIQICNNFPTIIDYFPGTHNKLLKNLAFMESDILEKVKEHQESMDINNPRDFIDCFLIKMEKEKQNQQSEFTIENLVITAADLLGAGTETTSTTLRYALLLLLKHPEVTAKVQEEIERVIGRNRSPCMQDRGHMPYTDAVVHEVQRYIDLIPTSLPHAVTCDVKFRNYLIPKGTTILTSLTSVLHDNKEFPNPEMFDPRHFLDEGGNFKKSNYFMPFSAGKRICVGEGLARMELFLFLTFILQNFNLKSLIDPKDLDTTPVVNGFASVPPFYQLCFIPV
T3 sequence (P11712 whole entry): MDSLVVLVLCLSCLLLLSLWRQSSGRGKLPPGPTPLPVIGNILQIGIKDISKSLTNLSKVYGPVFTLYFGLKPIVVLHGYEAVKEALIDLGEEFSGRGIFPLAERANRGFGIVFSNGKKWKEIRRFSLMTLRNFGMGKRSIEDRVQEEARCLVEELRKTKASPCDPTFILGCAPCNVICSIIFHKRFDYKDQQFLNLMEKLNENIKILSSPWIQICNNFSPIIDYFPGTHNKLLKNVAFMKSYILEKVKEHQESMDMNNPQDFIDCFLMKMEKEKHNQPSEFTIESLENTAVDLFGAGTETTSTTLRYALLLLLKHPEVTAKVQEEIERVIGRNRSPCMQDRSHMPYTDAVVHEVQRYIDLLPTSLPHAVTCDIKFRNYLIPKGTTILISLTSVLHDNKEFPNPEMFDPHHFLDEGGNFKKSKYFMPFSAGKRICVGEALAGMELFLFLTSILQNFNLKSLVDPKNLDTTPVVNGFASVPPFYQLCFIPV
T4 sequence (P10635 whole entry): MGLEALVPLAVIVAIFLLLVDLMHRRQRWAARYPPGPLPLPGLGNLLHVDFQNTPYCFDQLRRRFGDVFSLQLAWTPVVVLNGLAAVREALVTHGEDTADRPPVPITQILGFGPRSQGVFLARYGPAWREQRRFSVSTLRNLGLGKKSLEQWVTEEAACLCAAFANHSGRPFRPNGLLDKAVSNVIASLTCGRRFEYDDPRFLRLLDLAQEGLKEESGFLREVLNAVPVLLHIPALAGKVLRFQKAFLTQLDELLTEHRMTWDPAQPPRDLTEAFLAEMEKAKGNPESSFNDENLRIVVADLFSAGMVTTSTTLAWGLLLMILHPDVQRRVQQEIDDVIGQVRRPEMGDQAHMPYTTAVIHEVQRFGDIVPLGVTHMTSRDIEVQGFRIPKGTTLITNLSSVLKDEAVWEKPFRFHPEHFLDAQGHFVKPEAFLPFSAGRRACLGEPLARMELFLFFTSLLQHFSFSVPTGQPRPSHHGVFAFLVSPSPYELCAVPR
T5 sequence (P08684 whole entry): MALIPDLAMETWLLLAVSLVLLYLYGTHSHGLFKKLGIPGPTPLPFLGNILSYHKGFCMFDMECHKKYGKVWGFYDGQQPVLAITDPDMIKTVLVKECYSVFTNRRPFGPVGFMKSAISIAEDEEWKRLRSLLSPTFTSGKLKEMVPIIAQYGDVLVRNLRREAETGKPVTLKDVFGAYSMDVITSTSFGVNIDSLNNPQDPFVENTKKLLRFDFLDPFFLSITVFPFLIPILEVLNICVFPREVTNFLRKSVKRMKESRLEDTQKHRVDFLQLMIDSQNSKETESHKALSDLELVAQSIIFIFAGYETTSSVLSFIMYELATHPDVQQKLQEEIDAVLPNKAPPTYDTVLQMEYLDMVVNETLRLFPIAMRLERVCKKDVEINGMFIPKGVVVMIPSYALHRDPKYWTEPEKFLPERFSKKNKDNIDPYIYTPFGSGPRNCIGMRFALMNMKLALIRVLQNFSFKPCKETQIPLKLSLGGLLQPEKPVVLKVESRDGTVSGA

| Structure (SMILES) | IC50 [1] [µM] | IC50 (CYP1A2) [µM] | IC50 (CYP2C19) [µM] | IC50 (CYP2C9) [µM] | IC50 (CYP2D6) [µM] | IC50 (CYP3A4) [µM] | C0 ([7]; IV (1 mg/kg)) [ng/mL] | clearance ([7]; IV (1 mg/kg)) [mL/min/kg] | half-life ([7]; IV (1 mg/kg)) [h] | AUC(0-t) ([7]; IV (1 mg/kg)) [ng·h/mL] | Cmax ([7]; Oral (5 mg/kg)) [ng/mL] | half-life ([7]; Oral (5 mg/kg)) [h] | AUC(0-t) ([7]; Oral (5 mg/kg)) [ng·h/mL] | bioavailability [7] [%] | also measured |
| --- | --- | --- | --- | --- | --- | --- | --- | --- | --- | --- | --- | --- | --- | --- | --- |
| CC1(C)C(=O)C(C#N)=C[C@]2(C)C3=CC(=O)[C@@H]4[C@@H]5C[C@@](C)(c6nnco6)CC[C@]5(C)CC[C@@]4(C)[C@]3(C)CC[C@@H]12 [Example 9, (4aR,6aS,6bR,8aS,11S,12aS,12bR,14bS)-4,4,6a,6b,8a,11,14b-heptamethyl-11-(1,3,4-oxadiazol-2-yl)-3,13-dioxo-3,4,4a,5,6,6a,6b,7,8,8a,9,10,11,12,12a,12b,13,14b-octadecahydropicene-2-carbonitrile] | < 0.01 | > 50 | 13.3 | 3.1 | 28.7 | 0.3 | 427 | 56 | 1.5 | 301 | 143 | 2.2 | 333 | 22.1 | CLint scaled at 1 μM [2]: 94 mL/min/kg; half-life at 1 μM [2]: 0.222 h; CLint scaled at 1 μM [3]: 72.1 mL/min/kg; half-life at 1 μM [3]: 0.577 h; CLint scaled at 1 μM [4]: 186 mL/min/kg; half-life at 1 μM [4]: 0.492 h; CLint scaled at 1 μM [5]: 104 mL/min/kg; half-life at 1 μM [5]: 0.318 h; CLint scaled at 1 μM [6]: 270 mL/min/kg; half-life at 1 μM [6]: 6.9 min |
| CC1(C)C(=O)C(C#N)=C[C@]2(C)C3=CC(=O)[C@@H]4[C@@H]5C[C@@](C)(N6CCCC6=O)CC[C@]5(C)CC[C@@]4(C)[C@]3(C)CC[C@@H]12 [Example 12, (4aR,6aS,6bR,8aS,11S,12aS,12bR,14bS)-4,4,6a,6b,8a,11,14b-heptamethyl-3,13-dioxo-11-(2-oxopyrrolidin-1-yl)-3,4,4a,5,6,6a,6b,7,8,8a,9,10,11,12,12a,12b,13,14b-octadecahydropicene-2-carbonitrile] | < 0.01 | > 50 | 9.7 | 2.7 | > 50 | 2.8 | 359 | 85.7 | 1.7 | 191 | 29 | 4.1 | 94 | 9.9 | – |
| CC1(C)C(=O)C(C#N)=C[C@]2(C)C3=CC(=O)[C@@H]4[C@@H]5C[C@@](C)(N6CCOC6=O)CC[C@]5(C)CC[C@@]4(C)[C@]3(C)CC[C@@H]12 [Example 13, (4aR,6aS,6bR,8aS,11S,12aS,12bR,14bS)-4,4,6a,6b,8a,11,14b-heptamethyl-3,13-dioxo-11-(2-oxooxazolidin-3-yl)-3,4,4a,5,6,6a,6b,7,8,8a,9,10,11,12,12a,12b,13,14b-octadecahydropicene-2-carbonitrile] | < 0.01 | > 50 | 11.7 | 1.9 | > 50 | 1.9 | 355 | 78.9 | 2.2 | 206 | 45 | 2.1 | 197 | 19.2 | – |
| CC1(C)C(=O)C(C#N)=C[C@]2(C)C3=CC(=O)[C@@H]4[C@@H]5C[C@@](C)(Cc6nnco6)CC[C@]5(C)CC[C@@]4(C)[C@]3(C)CC[C@@H]12 [Example 14, (4aR,6aS,6bR,8aR,11S,12aS,12bR,14bS)-11-((1,3,4-oxadiazol-2-yl)methyl)-4,4,6a,6b,8a,11,14b-heptamethyl-3,13-dioxo-3,4,4a,5,6,6a,6b,7,8,8a,9,10,11,12,12a,12b,13,14b-octadecahydropicene-2-carbonitrile] | < 0.01 | > 50 | 6.2 | 3 | 10.3 | 1 | – | – | – | – | – | – | – | – | CLint scaled at 1 μM [2]: 87.9 mL/min/kg; half-life at 1 μM [2]: 0.237 h; CLint scaled at 1 μM [3]: 695 mL/min/kg; half-life at 1 μM [3]: 0.06 h; CLint scaled at 1 μM [4]: 1460 mL/min/kg; half-life at 1 μM [4]: 0.0633 h; CLint scaled at 1 μM [5]: 228 mL/min/kg; half-life at 1 μM [5]: 0.147 h; CLint scaled at 1 μM [6]: 602 mL/min/kg; half-life at 1 μM [6]: 3.1 min |
| Cc1noc([C@@]2(C)CC[C@]3(C)CC[C@]4(C)[C@H](C(=O)C=C5[C@@]6(C)C=C(C#N)C(=O)C(C)(C)[C@@H]6CC[C@]54C)[C@@H]3C2)n1 [Example 15, (4aR,6aS,6bR,8aS,11S,12aS,12bR,14bS)-4,4,6a,6b,8a,11,14b-heptamethyl-11-(3-methyl-1,2,4-oxadiazol-5-yl)-3,13-dioxo-3,4,4a,5,6,6a,6b,7,8,8a,9,10,11,12,12a,12b,13,14b-octadecahydropicene-2-carbonitrile] | < 0.01 | > 50 | 13.6 | 2.6 | 36.2 | 1.6 | 380 | 47 | 2.8 | 329 | 89 | 1.7 | 412 | 25 | – |
| CC1(C)C(=O)C(C#N)=C[C@]2(C)C3=CC(=O)[C@@H]4[C@@H]5C[C@@](C)(N6C(=O)CCC6=O)CC[C@]5(C)CC[C@@]4(C)[C@]3(C)CC[C@@H]12 [Example 18, (4aR,6aS,6bR,8aS,11S,12aS,12bR,14bS)-11-(2,5-dioxopyrrolidin-1-yl)-4,4,6a,6b,8a,11,14b-heptamethyl-3,13-dioxo-3,4,4a,5,6,6a,6b,7,8,8a,9,10,11,12,12a,12b,13,14b-octadecahydropicene-2-carbonitrile] | < 0.01 | > 50 | 19.6 | 4.7 | > 50 | 2.1 | 472 | 62.5 | 1.4 | 267 | 50 | 2.3 | 181 | 13.6 | – |
| CC1(C)C(=O)C(C#N)=C[C@]2(C)C3=CC(=O)[C@@H]4[C@@H]5C[C@@](C)(c6nnc(C(=O)NC7CC7)o6)CC[C@]5(C)CC[C@@]4(C)[C@]3(C)CC[C@@H]12 [Example 19, 5-((2S,4aS,6aR,6bS,8aR,12aS,14aR,14bS)-11-cyano-2,4a,6a,6b,9,9,12a-heptamethyl-10,14-dioxo-1,2,3,4,4a,5,6,6a,6b,7,8,8a,9,10,12a,14,14a,14b-octadecahydropicen-2-yl)-N-cyclopropyl-1,3,4-oxadiazole-2-carboxamide] | < 0.01 | > 50 | 5.8 | 1.2 | 8.4 | 2.1 | 703 | 32.5 | 1.8 | 496 | 63 | 4.5 | 364 | 14.7 | – |

Source: US20220017566A1, “TERPINOID DERIVATIVES AND USES THEREOF” (SICHUAN HAISCO PHARMACEUTICAL CO., LTD., priority 2018, published 2022)
